Data published in patent publication US10980805B2, “Aza-pyridone compounds and uses thereof” (Janssen BioPharma, Inc., priority 2013, dated 2021).

Key:
[1] = system: Influenza strain A549_A/WSN/33 (H1N1); assay: Influenza antiviral assay (neuraminidase fluorescence readout); format: cell-based, Influenza virus; conditions: Influenza A virus, read-out: % Inhibition (EC50 class, Table 2)
[2] = target: Full length EN PA (influenza PA endonuclease) (Influenza A virus, UniProt P15659); assay: EN PA FRET inhibition assay; format: biochemical; conditions: FRET probe, mean of a minimum of two independent experiments, read-out: Potency (IC50 class, Table 3)

SMILES	EC50 [1]	IC50 [2]
O=C1NCC(C(c2ccccc2)c2ccccc2)n2ncc(=O)c(O)c21 (stereo not shown) [Compound 8]	< 20 µM	< 0.25 µM
CN1C[C@H]([C@@H](c2ccccc2)c2cccc(Cl)c2)n2ncc(=O)c(O)c2C1=O [Compound 9-A]	< 20 µM	< 0.25 µM
CN1C[C@H]([C@H](c2ccccc2)c2cccc(Cl)c2)n2ncc(=O)c(O)c2C1=O [Compound 9-B]	< 20 µM	< 0.25 µM
CN1CC(C(c2ccccc2)c2cccc(Cl)c2)n2ncc(=O)c(O)c2C1=O (stereo not shown) [Compound 9]	< 20 µM	< 0.25 µM
O=C1NCC(C2c3ccccc3CSc3c(Cl)cccc32)n2ncc(=O)c(O)c21 (stereo not shown) [Compound 10]	< 20 µM	< 0.25 µM
CCN1C[C@H]([C@@H](c2ccccc2)c2cccc(Cl)c2)n2ncc(=O)c(O)c2C1=O [Compound 12-A]	< 20 µM	< 0.25 µM
CCN1C[C@H]([C@H](c2ccccc2)c2cccc(Cl)c2)n2ncc(=O)c(O)c2C1=O [Compound 12-B]	< 20 µM	< 0.25 µM
CCN1CC(C(c2ccccc2)c2cccc(Cl)c2)n2ncc(=O)c(O)c2C1=O (stereo not shown) [Compound 12]	< 20 µM	< 0.25 µM
O=C1c2c(O)c(=O)cnn2[C@@H](C2c3ccccc3CCc3ccccc32)CN1Cc1ccccc1 [Compound 13-A]	< 20 µM	< 0.25 µM
O=C1c2c(O)c(=O)cnn2[C@H](C2c3ccccc3CCc3ccccc32)CN1Cc1ccccc1 [Compound 13-B]	< 20 µM	0.25 to 1 µM
O=C1c2c(O)c(=O)cnn2C(C2c3ccccc3CCc3ccccc32)CN1Cc1ccccc1 (stereo not shown) [Compound 13]	< 20 µM	< 0.25 µM
CCN1C[C@H](C2c3ccccc3CCc3ccccc32)n2ncc(=O)c(O)c2C1=O [Compound 14-A]	< 20 µM	< 0.25 µM
CCN1CC(C2c3ccccc3CCc3ccccc32)n2ncc(=O)c(O)c2C1=O (stereo not shown) [Compound 14]	< 20 µM	< 0.25 µM
O=C1NCC(C2c3ccccc3CSc3cc(Cl)ccc32)n2ncc(=O)c(O)c21 (stereo not shown) [Compound 16]	< 20 µM	0.25 to 1 µM
CC(C)N1C[C@@H](C2c3ccccc3CCc3ccccc32)n2ncc(=O)c(O)c2C1=O [Compound 17-B]	< 20 µM	< 0.25 µM
CC(C)N1CC(C2c3ccccc3CCc3ccccc32)n2ncc(=O)c(O)c2C1=O (stereo not shown) [Compound 17]	< 20 µM	< 0.25 µM
C[C@H](N1C[C@H](C(c2ccccc2)c2ccccc2)n2ncc(=O)c(O)c2C1=O)C(F)(F)F [Compound 18-A]	< 20 µM	< 0.25 µM
C[C@@H](N1C[C@@H](C(c2ccccc2)c2ccccc2)n2ncc(=O)c(O)c2C1=O)C(F)(F)F [Compound 18-B]	< 20 µM	< 0.25 µM
CC(N1CC(C(c2ccccc2)c2ccccc2)n2ncc(=O)c(O)c2C1=O)C(F)(F)F (stereo not shown) [Compound 18]	< 20 µM	< 0.25 µM
CN1CC(Cc2ccccc2-c2ccccc2)n2ncc(=O)c(O)c2C1=O (stereo not shown) [Compound 19]	< 20 µM	< 0.25 µM
CC(C)N1CC(C(c2ccccc2)c2cccc(Cl)c2)n2ncc(=O)c(O)c2C1=O (stereo not shown) [Compound 20]	< 20 µM	< 0.25 µM
CCN1C[C@@H](C(c2cccc(F)c2)c2cccc(F)c2)n2ncc(=O)c(O)c2C1=O [Compound 21-B]	< 20 µM	< 0.25 µM

SMILES	EC50 [1]	IC50 [2]
CCN1CC(C(c2cccc(F)c2)c2cccc(F)c2)n2ncc(=O)c(O)c2C1=O (stereo not shown) [Compound 21]	< 20 µM	< 0.25 µM
CN1CC(C(c2cccc(F)c2)c2cccc(F)c2)n2ncc(=O)c(O)c2C1=O (stereo not shown) [Compound 22]	< 20 µM	< 0.25 µM
CN1CC(C(c2ccccc2)c2cccc(F)c2)n2ncc(=O)c(O)c2C1=O (stereo not shown) [Compound 23]	< 20 µM	< 0.25 µM
CCN1CC(C(c2ccccc2)c2cccc(F)c2)n2ncc(=O)c(O)c2C1=O (stereo not shown) [Compound 24]	< 20 µM	< 0.25 µM
Cc1cccc(C(c2cccc(C)c2)C2CN(C)C(=O)c3c(O)c(=O)cnn32)c1 (stereo not shown) [Compound 25]	< 20 µM	< 0.25 µM
COc1cccc(C(c2ccccc2)C2CN(C)C(=O)c3c(O)c(=O)cnn32)c1 (stereo not shown) [Compound 26]	< 20 µM	< 0.25 µM
Cc1cccc(C(c2ccccc2)C2CN(C)C(=O)c3c(O)c(=O)cnn32)c1 (stereo not shown) [Compound 27]	< 20 µM	< 0.25 µM
CN1CC(C(c2cccc(Cl)c2)c2cccc(Cl)c2)n2ncc(=O)c(O)c2C1=O (stereo not shown) [Compound 28]	< 20 µM	< 0.25 µM
CN1CC(C2c3ccccc3CCc3cc(Cl)ccc32)n2ncc(=O)c(O)c2C1=O (stereo not shown) [Compound 29]	< 20 µM	< 0.25 µM
CC(C)N1CC(=C2c3ccccc3CCc3ccccc32)n2ncc(=O)c(O)c2C1=O [Compound 30]	20 to 100 µM	< 0.25 µM
CN1CC(C2c3ccc(Cl)cc3CCc3cc(Cl)ccc32)n2ncc(=O)c(O)c2C1=O (stereo not shown) [Compound 31]	< 20 µM	< 0.25 µM
CN1CC(C(c2ccccc2)c2ccc(Cl)cc2)n2ncc(=O)c(O)c2C1=O (stereo not shown) [Compound 32]	< 20 µM	< 0.25 µM
C[C@H](N1C[C@H](C2c3ccccc3CCc3ccccc32)n2ncc(=O)c(O)c2C1=O)C(F)(F)F [Compound 33-A]	< 20 µM	< 0.25 µM
C[C@@H](N1C[C@@H](C2c3ccccc3CCc3ccccc32)n2ncc(=O)c(O)c2C1=O)C(F)(F)F [Compound 33-B]	< 20 µM	< 0.25 µM
CCN1CC(C(c2ccccc2)c2cccc(OC)c2)n2ncc(=O)c(O)c2C1=O (stereo not shown) [Compound 34]	< 20 µM	< 0.25 µM
C[C@H](N1CC(C(c2ccccc2)c2ccccc2)n2ncc(=O)c(O)c2C1=O)C(F)(F)F (stereo partly shown) [Compound 35-A]	< 20 µM	< 0.25 µM
C[C@@H](N1CC(C(c2ccccc2)c2ccccc2)n2ncc(=O)c(O)c2C1=O)C(F)(F)F (stereo partly shown) [Compound 35-B]	< 20 µM	0.25 to 1 µM
CCN1C[C@@H](C(c2cccc(C)c2)c2cccc(C)c2)n2ncc(=O)c(O)c2C1=O [Compound 36-B]	< 20 µM	≥ 1 µM
CCN1CC(C(c2cccc(C)c2)c2cccc(C)c2)n2ncc(=O)c(O)c2C1=O (stereo not shown) [Compound 36]	< 20 µM	< 0.25 µM
CCCN1C[C@H](C(c2ccccc2)c2ccccc2)n2ncc(=O)c(O)c2C1=O [Compound 37-A]	< 20 µM	< 0.25 µM
CN1CC(C(c2ccc(F)cc2)c2ccc(F)cc2)n2ncc(=O)c(O)c2C1=O (stereo not shown) [Compound 38]	< 20 µM	< 0.25 µM
CCN1C[C@@H](C(c2cccc(Cl)c2)c2cccc(Cl)c2)n2ncc(=O)c(O)c2C1=O [Compound 39-B]	< 20 µM	0.25 to 1 µM

SMILES	EC50 [1]	IC50 [2]
CCN1CC(C(c2cccc(Cl)c2)c2cccc(Cl)c2)n2ncc(=O)c(O)c2C1=O (stereo not shown) [Compound 39]	< 20 µM	< 0.25 µM
CN1CC(C(c2ccccc2)c2ccc(F)cc2)n2ncc(=O)c(O)c2C1=O (stereo not shown) [Compound 40]	< 20 µM	< 0.25 µM
CC(C)N1CC(C(c2cccc(F)c2)c2cccc(F)c2)n2ncc(=O)c(O)c2C1=O (stereo not shown) [Compound 41]	< 20 µM	< 0.25 µM
CN1C[C@H](C2c3ccccc3CCc3cccnc32)n2ncc(=O)c(O)c2C1=O (stereo partly shown) [Compound 42-A]	< 20 µM	< 0.25 µM
CN1C[C@@H](C2c3ccccc3CCc3cccnc32)n2ncc(=O)c(O)c2C1=O (stereo partly shown) [Compound 42-B]	20 to 100 µM	0.25 to 1 µM
CN1CC(C2c3ccccc3CCc3cccnc32)n2ncc(=O)c(O)c2C1=O (stereo not shown) [Compound 42]	< 20 µM	< 0.25 µM
CN1C[C@H](C2c3cc(F)ccc3CCc3ccc(F)cc32)n2ncc(=O)c(O)c2C1=O [Compound 45-A]	< 20 µM	< 0.25 µM
CN1C[C@@H](C2c3cc(F)ccc3CCc3ccc(F)cc32)n2ncc(=O)c(O)c2C1=O [Compound 45-B]	20 to 100 µM	< 0.25 µM
CN1CC(C2c3cc(F)ccc3CCc3ccc(F)cc32)n2ncc(=O)c(O)c2C1=O (stereo not shown) [Compound 45]	< 20 µM	< 0.25 µM
CN1C[C@@H](C2c3ccc(Cl)cc3CCc3cc(Cl)ccc32)n2ncc(=O)c(O)c2C1=O [Compound 46-B]	20 to 100 µM	< 0.25 µM
CC(C)N1CC(C(c2ccccc2)c2cccc(F)c2)n2ncc(=O)c(O)c2C1=O (stereo not shown) [Compound 47]	< 20 µM	< 0.25 µM
Cc1cccc(C(c2cccc(C)c2)C2CN(C(C)C)C(=O)c3c(O)c(=O)cnn32)c1 (stereo not shown) [Compound 48]	< 20 µM	< 0.25 µM
CCN1CC(C(c2ccccc2)c2cccc(C)c2)n2ncc(=O)c(O)c2C1=O (stereo not shown) [Compound 49]	< 20 µM	< 0.25 µM
Cc1cccc(C(c2ccccc2)C2CN(C(C)C)C(=O)c3c(O)c(=O)cnn32)c1 (stereo not shown) [Compound 50]	< 20 µM	< 0.25 µM
CC(C)N1C[C@H](C2c3cccc(F)c3CCc3c(F)cccc32)n2ncc(=O)c(O)c2C1=O [Compound 51-A]	< 20 µM	< 0.25 µM
CC(C)N1CC(C2c3cccc(F)c3CCc3c(F)cccc32)n2ncc(=O)c(O)c2C1=O (stereo not shown) [Compound 51]	< 20 µM	< 0.25 µM
CN1C[C@@H](C2c3cc(Cl)ccc3CCc3ccc(Cl)cc32)n2ncc(=O)c(O)c2C1=O [Compound 52-A]	< 20 µM	< 0.25 µM
CN1C[C@H](C2c3cc(Cl)ccc3CCc3ccc(Cl)cc32)n2ncc(=O)c(O)c2C1=O [Compound 52-B]	< 20 µM	< 0.25 µM
CN1CC(C2c3cc(Cl)ccc3CCc3ccc(Cl)cc32)n2ncc(=O)c(O)c2C1=O (stereo not shown) [Compound 52]	< 20 µM	< 0.25 µM
COCCN1C[C@H](C(c2ccccc2)c2ccccc2)n2ncc(=O)c(O)c2C1=O [Compound 53-A]	< 20 µM	< 0.25 µM
CC(C)Oc1cccc(C(c2ccccc2)[C@H]2CN(C)C(=O)c3c(O)c(=O)cnn32)c1 (stereo partly shown) [Compound 54]	20 to 100 µM	< 0.25 µM
